66 molecules from PubChem BioAssay AID1159562 (GlaxoSmithKline (GSK), 2015) can be followed below.

As a reminder, the IC50 is the point on the concentration scale where inhibition reaches its midpoint.

Each structure is given as a SMILES string. Activity calls are given as the source filed them. No rule for the calls is given here.

The assay relates to Trypanosoma brucei growth inhibition, luminescence. In words: antitrypanosomal activity against T. brucei – luminescence (AID 1159562).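 Also: parasites grew with compound for 24 h before the luminescence read.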
For `FC(F)(F)c1cc(C2CCCN(Cc3c[nH]c4ccccc34)C2)nc2ncnn12` (stereo unspecified), the IC50 is > 40 µM (inactive).

`O=C(Nc1ccc(S(=O)(=O)N2CCCC2)cc1)c1ccc([N+](=O)[O-])s1`: the IC50 was 0.2 µM. As for `CC1(Oc2cncc(Cl)c2)CCN(Cc2cc3ccccc3[nH]2)C1` (stereo unspecified), the IC50 was > 40 µM (inactive). With `COc1ccc2ncc(Cl)c(CCN3CC[C@H](NCc4cc5c(cn4)OCS5)[C@@H](O)C3)c2n1` the figure was 0.63 µM; with `O=C(Nc1n[nH]c(-c2ccccn2)n1)C1CC1c1ccccc1` (stereo unspecified), 20 µM; with `c1ccc(CNc2cccc3ccncc23)cc1`, > 40 µM (inactive). Consider `COc1ccc(C2CC(c3ccccc3Cl)=NN2C(=O)CNC(=O)C2CCCC2)cc1` (stereo unspecified), for which the IC50 was 0.79 µM.

Take `O=C(CN1CCC2(O)CCCCC2C1c1ccc2c(c1)OCO2)Nc1ccc(Cl)cc1Cl` (stereo unspecified): the half-maximal inhibitory concentration (IC50) is 7.9 µM. For the molecule `O=C(Nc1cccc(Cl)c1)Nc1ccc([N+](=O)[O-])cc1Cl`, the half-inhibitory concentration (IC50) was 3.2 µM.

As to `O=[N+]([O-])c1cccc(Nc2cncc(-c3ccccc3CO)c2)c1`, the IC50 was > 40 µM (inactive). Turning to `O=C(CCCn1cnc([N+](=O)[O-])n1)Nc1cccc(Cl)c1`, the IC50 was > 40 µM (inactive). For the molecule `Nc1nc(-c2ccccn2)nc(N)c1Cc1c(F)cccc1Cl`, the IC50 was 2 µM. `CCOc1ccc(OCC(=O)N2c3ccccc3CC2C(=O)NC)cc1` (stereo unspecified): the half-inhibitory concentration (IC50) was 0.79 µM.

On to `Cc1[nH]n2c(=O)c3c(nc2c1-c1ccc(F)cc1)CCCC3`, for which the 50% inhibitory concentration (IC50) was 0.63 µM. Consider `COc1cnc2ccc(=O)n(CCN3CCC(NC(=O)c4ccc(Cl)cc4)CC3)c2c1`, for which the 50% inhibitory concentration (IC50) is 0.1 µM. As to `Cc1nn(-c2ccccc2)nc1CNC(=O)CN(Cc1ccccn1)Cc1ccccn1`, the IC50 is 10 µM. With `CN(Cc1cc2ccccc2s1)c1ncc2c(N)nc(N)nc2n1` the figure was 25 µM; with `Cc1nc2c(-c3ncn[nH]3)cc(NC(=O)Cc3ccccc3)cn2c1C`, 10 µM; with `CCN(CC)S(=O)(=O)c1ccc(Cn2nc(C(=O)Nc3ccncn3)c3ccccc32)cc1`, > 40 µM (inactive).

As for `CC(CNS(=O)(=O)c1ccc(OC(F)F)cc1)c1ccc(NC(=O)c2ccncc2)cc1` (stereo unspecified), the IC50 is 20 µM.

Regarding `Cc1ccc(C)c(CN2C(=O)NC3(CCc4ccccc43)C2=O)c1` (stereo unspecified), the IC50 is 1 µM.

For `CN(C)Cc1ccc(-c2ccc(S(=O)(=O)NCC3CCCO3)c(F)c2)cc1` (stereo unspecified), the IC50 is 40 µM. To `O=S(=O)(NCC(c1cccnc1)N1CCN(c2ccccc2F)CC1)c1ccc(F)cc1` (stereo unspecified) belongs > 40 µM (inactive).

Consider `Fc1ccc(OC2CC(NCc3cccc4cn[nH]c34)C2)cc1C(F)(F)F` (stereo unspecified), for which the IC50 was 10 µM.

In the case of `O=C(Nc1ccc(-c2nc3ccccc3c(=O)[nH]2)cc1)c1cccs1`, the IC50 is 1 µM.

With `O=C(CN(Cc1ccccn1)Cc1ccccn1)NC1Cc2ccccc2C1`, the IC50 is 13 µM. To `CCOc1ccc(CC(=O)N2c3ccccc3CC2C(=O)NC)cc1` (stereo unspecified) belongs 0.5 µM. On to `O=C(NCCc1csc(-c2ccc(F)cc2)n1)c1ccco1`, for which the IC50 is 0.5 µM. `N#Cc1cc(N2CCCC2=O)ccc1Sc1ccccc1CO`: the concentration for half-maximal inhibition (IC50) is 32 µM. In the case of `NC(N)=Nc1nc(-c2ccc(NC(N)=NCCN3CCCC3)cc2)cs1`, the IC50 was 0.1 µM.

Consider `CN(C)S(=O)(=O)c1ccc(-c2cnc(N)c(-c3nc4ccc(F)cc4[nH]3)c2)cc1`, for which the IC50 was 1 µM. On to `Cc1nc2c(-c3nc(-c4ccc(N)cc4)n[nH]3)cccn2c1C`, for which the IC50 is 25 µM.

As to `O=C(NC1CCN(C2Cc3ccc(NS(=O)(=O)c4cc(F)cc(F)c4)cc3C2)CC1)C1CC1` (stereo unspecified), the half-inhibitory concentration (IC50) was 0.79 µM.

Consider `Cc1ccc(NC(=O)c2ccnc(N3CCCC3)c2)cc1-c1ccsc1C(N)=O`, for which the IC50 was 0.063 µM. Take `Cc1nc(-c2ccncc2)ncc1C(C)NC(=O)c1ccc(Cl)s1` (stereo unspecified): the IC50 is 1 µM.

Turning to `CCOc1cnn(C)c(=O)c1Nc1ccc(C(=O)NCc2ccc(F)cc2)cc1`, the IC50 was > 40 µM (inactive). In the case of `CC(c1ccc2c(c1)CCCC2)N(C)c1ncc2c(N)nc(N)nc2n1` (stereo unspecified), the IC50 was 13 µM. For `O=C(NCc1ccc(Cl)cc1)C1CN(C(=O)c2ccc(F)cc2)CCS1` (stereo unspecified), the IC50 was 0.63 µM.

Take `O=C(CN(Cc1ccccn1)Cc1ccccn1)NCc1csc(-c2cccs2)n1`: the IC50 was 16 µM. For the molecule `O=C(CN(c1cccc(C(F)(F)F)c1)S(=O)(=O)c1ccc(Cl)cc1)NCc1ccc(F)c(F)c1`, the IC50 is 25 µM. With `CN(Cc1cccnc1)Cc1ccc(N2CCN(C(=O)C3(c4ccc(Cl)cc4)CC3)CC2)nc1` the figure was 25 µM; with `O=C(O)[C@H]1C[C@@H]1c1ccc(-c2ccc(CN(CCc3ccccn3)C(=O)C3CCC3)cc2)cc1`, 0.79 µM. As for `Clc1ccc(CN2CCN(C3=NCCN3)CC2)cc1Cl`, the IC50 was > 40 µM (inactive). Turning to `CC(=O)Nc1ccc(CN2CCC(N3CC(c4ccccc4)(c4ccccc4)OCC3=O)CC2)cc1`, the IC50 is 0.4 µM. Turning to `O=C(CC1(O)C(=O)N(Cc2cccs2)c2ccc(Br)cc21)c1cccnc1` (stereo unspecified), the IC50 was 0.79 µM. On to `O=C(NCC1CCCCC1)c1cc(=O)c2ccccc2o1`, for which the IC50 is 1.3 µM. To `Cc1ccc(S(=O)(=O)Nc2ccc(CN3CCN(C(=O)c4cccc(C#N)c4)CC3)cc2)cc1` belongs 0.32 µM. With `Cc1cc(N2CCc3ccccc3C2)nc(Nc2ccc(S(=O)(=O)N3CCOCC3)cc2)n1`, the IC50 is > 40 µM (inactive).

`O=C(NCc1nnc2n1CCCCC2)c1csc(-c2ccccc2)n1`: the IC50 is 0.4 µM.

As to `CS(=O)(=O)N1CCC(Nc2ncc(Br)c(Nc3cccc(F)c3C(N)=O)n2)CC1`, the IC50 was 0.016 µM. With `CCc1cccc(CC)c1-n1c(SCC(=O)N2CC(=O)Nc3ccccc32)nnc1-c1cccnc1` the figure was 1 µM; with `CCS(=O)(=O)c1cccc(C(=O)Nc2nc(-c3ccccn3)cs2)c1`, 0.63 µM. `COc1ccc(-c2cnc(NC(=O)c3cc(-c4ccccn4)n[nH]3)n2C)cc1`: the IC50 was 10 µM. With `CCCCn1nnnc1CSc1nc(C)cc(C)c1C#N` the figure was > 40 µM (inactive); with `CCn1nccc1CN(C)C(=O)C=Cc1ccc(Cl)cc1`, > 40 µM (inactive); with `O=C(C1CCCCC1)N1CCN(c2nnc(-c3ccccc3)c3ccccc23)CC1`, > 40 µM (inactive).

Turning to `CCNc1cc(-c2ccccn2)nc(Nc2ccc(OC)cc2)n1`, the concentration for half-maximal inhibition (IC50) is 10 µM. As to `CC(=O)Nc1ccc(-c2csc(NC(=O)c3ccc([N+](=O)[O-])s3)n2)cc1`, the half-inhibitory concentration (IC50) is 0.16 µM.

Consider `N#Cc1cccc(CNc2ccc(-c3cnn(CC4CC4)c(=O)c3C#N)cc2)c1`, for which the concentration for half-maximal inhibition (IC50) was 13 µM. For the molecule `COc1ccccc1-c1c(C)[nH]c2nc(N)nc(C)c12`, the IC50 was > 40 µM (inactive). `COCCn1cnc2cc(NC(=O)C3CCCCC3)cc(C(=O)N3CCc4sccc4C3)c21`: the concentration for half-maximal inhibition (IC50) is 1 µM.

Take `Nc1cc(-c2ccc3ncnc(N4CCOCC4)c3c2)cnc1N`: the half-maximal inhibitory concentration (IC50) is 0.16 µM.

Regarding `O=C(Nc1ccc(C(F)(F)F)cc1)NC1(C(=O)NCc2ccco2)CCCCC1`, the 50% inhibitory concentration (IC50) is 1 µM.

Consider `COc1ccc(-c2csc(NC(=O)c3ccc([N+](=O)[O-])s3)n2)cc1`, for which the half-inhibitory concentration (IC50) is 0.79 µM.

Turning to `CC1CN(Cc2ccc(C#N)cc2)CCN1c1ccc(NC(=O)c2ccccc2F)cc1` (stereo unspecified), the IC50 is > 40 µM (inactive). Take `Cc1c(C#N)c([N+](=O)[O-])nn1Cc1cccc(Cl)c1Cl`: the IC50 is 25 µM.
